Values quoted from earlier work, collected in patent publication US11993576B2, “N-benzyl-N-arylsulfonamide derivative and preparation and use thereof” (Hangzhou Yirui Pharmaceutical Technology Co., Ltd, priority 2019, dated 2024).

Key:
[1] = test system: EAE; conditions: in vivo; cited from earlier work
[2] = test system: Th2 TEM cells with highly expressed Kv1.3; conditions: ovalbumin-induced asthma, rat; cited from earlier work
[3] = test system: rat model of autoimmune glomerular basal membrane nephritis; conditions: intraperitoneal injection; cited from earlier work

Row | Molecule | inductive occurrence of EAE [1] | production of IFN-γ and IL-17 [1] | proliferation of Th2 TEM cells and production of cytokines [2] | proteinuria and crescentic glomeruli [3]
1 | SHK-186 | can resist inductive occurrence of EAE | inhibit production of IFN-γ and IL-17 | can effectively inhibit proliferation of Th2 TEM cells with highly expressed Kv1.3 and production of cytokines | 
2 | O=c1ccc2c(OCCCCc3ccccc3)c3ccoc3cc2o1 [Psora-4] |  |  |  | can significantly decrease proteinuria and crescentic glomeruli
